The test system of test [1] is T-cell. Format: cell-based, mice.
The test system of test [2] is T-cell. Format: cell-based, human.
In test [3] the test system is Aβ (SEQ ID NO:2). Description: Anti-Aβ antibody titer in serum of transnasally vaccinated mice, ELISA (Experiment 1). Particulars: BALB/c mice, transnasal 50 μg/mouse/once, four times at two weeks interval, serum one week after last administration. Format: in vivo, BALB/c female mice. From the text:
The results are in Table 1.

Where two headings read alike, the source gives them in different places.

Regarding “AYNFVESIINLFQVVHNSYN (diphtheria toxoid (partial sequence)) [DTL]”, the “Induction of blastogenesis of the T-cell” value in test [1] and in test [2] was “inducing the blastogenesis of the T-cell” throughout.

For the substance “RGD-Gag-KK-Aβ(1-13): RGD motif, Gag T-cell epitope (HIV-1 Gag 298-312), KK linker, Aβ(1-13) B-cell epitope (RGDKRWIILGLNKIVRMYKKDAEFRHDSGYEVH; peptide for the production of anti-amyloid beta antibody)”, the “Antibody titer Anti-Aβ antibody” value in test [3] stood at 32.

As for “QYIVNEDKFQILYNSIMYGF (tetanus toxoid (partial sequence)) [TetT3L]”, the “Induction of blastogenesis of the T-cell” value in test [1] and in test [2] was “inducing the blastogenesis of the T-cell” throughout.

Regarding “RGD-Gag-KK-Aβ(1-11): RGD motif, Gag T-cell epitope (HIV-1 Gag 298-312), KK linker, Aβ(1-11) B-cell epitope (RGDKRWIILGLNKIVRMYKKDAEFRHDSGYE; peptide for the production of anti-amyloid beta antibody)”, in test [3], the “Antibody titer Anti-Aβ antibody” value was 14.9.

For the substance “RGD-Gag-KK-Aβ(3-11): RGD motif, Gag T-cell epitope (HIV-1 Gag 298-312), KK linker, Aβ(3-11) B-cell epitope (RGDKRWIILGLNKIVRMYKKEFRHDSGYE; peptide for the production of anti-amyloid beta antibody)”, the “Antibody titer Anti-Aβ antibody” value in test [3] is 22.6.

The values above are taken from US8034353B2, “Peptide vaccine for inducing the production of anti-amyloid β-peptide antibody” (priority 2006, dated 2011).
